According to patent publication US11059795B2, “Androgen receptor modulators and methods for their use” (ESSA Pharma, Inc., priority 2018, dated 2021):

Legend:
[1] = Microsomal stability assay, monkey liver microsomes; assay type: in vitro ADME; conditions: pH 7.4, read-out: Liver microsome T½ (min) Monkey
Description: (§1) Microsomal stability assay is a widely used in vitro model to characterize the metabolic conversion by phase I enzymes, such as cytochrome P450 (CYP) enzymes. Since metabolism is known to be highly variable in different species, microsomal stability assay is commonly run in multiple species. Metabolic stability of testing compound can be evaluated using human, rat, mouse, or other animal liver or intestine microsomes to predict intrinsic clearance.
(§2) The assay was carried out in 96-well microtiter plates at 37° C. Reaction mixtures (25 μL) contained a final concentration of 1 μM test compound, 0.5 mg/mL liver microsomes protein, and 1 mM NADPH and/or 1 mM UDPGA (with alamethicin) in 100 mM potassium phosphate, pH 7.4 buffer with 3 mM MgCl2. The incubation was done with N=1, but duplicate incubation at each time point can be prepared if necessary. At each of the time points (for example, 0, 15, 30, and 60 minutes), 150 μL of quench solution (100% acetonitrile with 0.1% formic acid) with internal standard was transferred to each well. Besides the zero minute controls, mixtures containing the same components except the NADPH can also be prepared as the negative control. Verapamil was included as a positive control to verify assay performance. Plates were sealed, vortexed, and centrifuged at 4° C. for 15 minutes at 4000 rpm. The supernatant is transferred to fresh plates for LC/MS/MS analysis.
(§3) Summarized conditions: [Compound]=[…], [LM]=0.5 mg/mL, [NADPH]=1 mM and/or [UDPGA]=1 mM, Buffer=100 mM Potassium Phosphate, pH 7.4 with 3 mM MgCl2, Time=0, 15, 30, and 60 min, and Temperature=37° C.
(§4) All samples were analyzed on LC/MS/MS using an AB Sciex API 4000 instrument, coupled to a Shimadzu LC-20AD LC Pump system. Analytical samples were separated using a Waters Atlantis T3 dC18 reverse phase HPLC column (20 mm×2.1 mm) at a flow rate of 0.5 mL/min. The mobile phase consisted of 0.1% formic acid in water (solvent A) and 0.1% formic acid in 100% acetonitrile (solvent B).
(§5) The extent of metabolism is calculated as the disappearance of the test compound, compared to the 0-min time incubation. Initial rates are calculated for the compound concentration and used to determine half-life (t½) values and subsequently, the intrinsic clearance (Clint). Clint=(0.693)(1/t½ (min))(g of liver/kg of body weight)(mL incubation/mg of microsomal protein)(45 mg of microsomal protein/g of liver weight)

[2] = In vivo pharmacokinetics in plasma after oral gavage (PO) in male CD-1 mice; conditions: 5 mg/kg PO, Table 4
Description: The purpose of this study is to determine the pharmacokinetics of the tested compounds in plasma, following oral gavage administration (PO) to male CD-1 mice.
Animal Husbandry: Animals were group housed during acclimation and the study. The animal room environment were controlled (target conditions: temperature 18 to 26° C., relative humidity 30 to 70%, 12 hours artificial light and 12 hours dark). Temperature and relative humidity were monitored daily. Animals were fasted at least 12 hours prior to the administration. All animals had access to Certified Rodent Diet ad libitum 4 hours post dosing.
Dose Formulation: prepared 85-100 uL of a stock solution of representative compounds of the disclosure in DMSO at 50 mM; 1.5% v/v of Tween 80 were added and mixed gently; 95.5% v/v saline was added gently to the organic phase. The solution was mixed slowly by reverse pipetting to get a clear solution.
Dose Administration: the dose formulations were administered via oral gavage per facility SOPs. The dose volume were determined by the animals' body weight collected on the morning of dosing day
Sample Collection: blood collection (about 0.05 mL per time point) was performed from saphenous vein of each animal into polypropylene tubes at each timepoints (0, 0.25, 0.5, 1, 2, 4, 8, 12, and 24 hr). All blood samples were transferred into pre-chilled tubes containing 2 μL of K2-EDTA (0.5M) and placed on wet ice until centrifugation. Each collected blood sample was in the wet-ice before centrifugation. Each collected blood was under centrifugation for 15 minutes at 4° C. and 3000 g for plasma collection. Plasma samples were stored in polypropylene tubes, quickly frozen over dry ice and kept at −70±10° C. until LC/MS/MS analysis.
Bioanalytical analysis: A LC-MS/MS method for the quantitative determination of tested compound in biological matrix were developed under non-GLP compliance. A calibration curve with at least 7 non-zero calibration standards were applied for the method including LLOQ.
Plasma concentration versus time data were analyzed by non-compartmental approaches using the Phoenix WinNonlin 6.3 software program. Cl, Vdss, C0, Cmax, Tmax, T^1/2, AUC(0-t), AUC(0-inf), MRT(0-t), MRT(0-inf), % F (oral availability) and graphs of plasma concentration versus time profile were reported.

[3] = Microsomal stability assay, human liver microsomes; assay type: in vitro ADME; conditions: pH 7.4, read-out: Liver microsome T½ (min) Human
Summary of the method: (§6)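 Compound at 1 μM was incubated at 37° C with 0.5 mg/mL liver microsomes and 1 mM NADPH and/or 1 mM UDPGA (with alamethicin) in 100 mM potassium phosphate pH 7.4, 3 mM MgCl2. Samples were taken at 0, 15, 30 and 60 min and measured by LC/MS/MS. t½ came from compound loss relative to 0 min, and Clint was scaled with 45 mg microsomal protein/g liver.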

[4] = Microsomal stability assay, mouse liver microsomes; assay type: in vitro ADME; conditions: pH 7.4; mouse liver microsomes; read-out: Liver microsome T½ (min) Mouse
Summary of the method: as §6

[5] = Hepatocyte stability assay, human hepatocytes; assay type: in vitro ADME; conditions: cryopreserved hepatocytes, read-out: Hepatocytes T½ (min) Human
Text: The […] of in vitro intrinsic clearance (Clint) for drug candidates in the early discovery stage is common practice in the pharmaceutical industry. The Clint values of drug candidates can help to confirm whether metabolism is the main clearance pathway when it is compared with the total body clearance in vivo. Hepatocytes are among the routinely used in vitro systems for measuring clearance. Hepatocytes have been reported to retain most of the phase I and phase II metabolic activities, and therefore, it is a useful tool to estimate the intrinsic clearance for potential drug candidates.
Metabolic stability of testing compound were be evaluated using human and mouse hepatocytes and can also be use rat, mouse, or other animal hepatocytes to predict intrinsic clearance. Cryopreserved hepatocytes were removed from the liquid nitrogen tank and thawed in a 37° C. water bath. As soon as the cells pulled away from the vial wall, they were decanted into 48 ml of warm HT medium. Cells were centrifuged for four minutes at 420 rpm (50 g). After removing the supernatant, pellet was re-suspended in warm DMEM medium. Cell density was counted by a hemacytometer.
The assay was carried out in 96-well microtiter plates. Compounds were incubated for 0, 60, 120, and 180 minutes at 37° C. with hepatocytes. Reaction mixtures (50 μL) contained a final concentration of 1 μM test compound, 0.5 million cells/mL hepatocytes in the DMEM medium. At each of the time points (for example, 0, 1, 2, and 3 hours), 200 μL of quench solution (100% acetonitrile with 0.1% formic acid) with internal standard was transferred to each well. Midazolam was included as a positive control to verify assay performance. Plates were sealed and centrifuged at 4° C. for 15 minutes at 4000 rpm. The supernatant is transferred to fresh plates for LC/MS/MS analysis.
Summarized conditions (customizable): [Compound]=[…], Positive control: midazolam and/or naloxone, [Hepatocyte]=0.5 million cells/Ml, time=0, 60, 120, and 180 min, t=37° C.
as §4
The extent of metabolism was calculated as the disappearance of the test compound, compared to the 0-min control reaction incubations. Initial rates were calculated for the compound concentration and used to determine t½ values and subsequently, the intrinsic clearance, Clint. Clint=(0.693)(1/t½(min))(mL incubation/million cells)

[6] = Microsomal stability assay, rat liver microsomes; assay type: in vitro ADME; conditions: pH 7.4, read-out: Liver microsome T½ (min) Rat
Description: as §1, §2, §3, §4, §5

LNCaP tumors = assay: LNCaP xenografts model in castrated male NCG mice; assay type: in vivo; conditions: Table 4; extrapolated Cmin in efficacy
Description: Tumor growth was measured in male NCG mice bearing LNCaP tumors. Castration was performed when tumors reached ˜100 mm^3 and dosing (60 mg/kg PO qd) started 1 week after castration. […] Individual tumor volume change from baseline measured at the end of the experiment.

[7] = Microsomal stability assay, dog liver microsomes; assay type: in vitro ADME; conditions: pH 7.4, read-out: Liver microsome T½ (min) Dog
Description: as §1, §2, §3, §4, §5

- half-life at 1 μM [1]: > 120 min
- Cmin at 5 mg/kg PO [2]: 3.80 µM
- half-life at 1 μM [3]: > 120 min
- half-life at 1 μM [4]: > 120 min
- half-life at 1 μM [5]: > 360 min
- half-life at 1 μM [6]: > 120 min
- Cmin at 5 mg/kg PO (LNCaP tumors): 22.8 µM
- half-life at 1 μM [7]: > 120 min
SMILES: CNC(=O)c1ccc(N2C(=S)N(c3ccc(C#N)c(C(F)(F)F)c3)C(=O)C2(C)C)cc1F [Enzalutamide, enzalutamide, reference compound]
